Results: patent US10251874B2, “Crystalline forms of a JAK inhibitor compound” (THERAVANCE BIOPHARMA R&D IP, LLC, priority 2017, dated 2019)

Target: T1, JAK3 (Homo sapiens, UniProt P52333)
T1 construct: GST; purchased Life Technologies
T1 sequence (P52333 1-1124): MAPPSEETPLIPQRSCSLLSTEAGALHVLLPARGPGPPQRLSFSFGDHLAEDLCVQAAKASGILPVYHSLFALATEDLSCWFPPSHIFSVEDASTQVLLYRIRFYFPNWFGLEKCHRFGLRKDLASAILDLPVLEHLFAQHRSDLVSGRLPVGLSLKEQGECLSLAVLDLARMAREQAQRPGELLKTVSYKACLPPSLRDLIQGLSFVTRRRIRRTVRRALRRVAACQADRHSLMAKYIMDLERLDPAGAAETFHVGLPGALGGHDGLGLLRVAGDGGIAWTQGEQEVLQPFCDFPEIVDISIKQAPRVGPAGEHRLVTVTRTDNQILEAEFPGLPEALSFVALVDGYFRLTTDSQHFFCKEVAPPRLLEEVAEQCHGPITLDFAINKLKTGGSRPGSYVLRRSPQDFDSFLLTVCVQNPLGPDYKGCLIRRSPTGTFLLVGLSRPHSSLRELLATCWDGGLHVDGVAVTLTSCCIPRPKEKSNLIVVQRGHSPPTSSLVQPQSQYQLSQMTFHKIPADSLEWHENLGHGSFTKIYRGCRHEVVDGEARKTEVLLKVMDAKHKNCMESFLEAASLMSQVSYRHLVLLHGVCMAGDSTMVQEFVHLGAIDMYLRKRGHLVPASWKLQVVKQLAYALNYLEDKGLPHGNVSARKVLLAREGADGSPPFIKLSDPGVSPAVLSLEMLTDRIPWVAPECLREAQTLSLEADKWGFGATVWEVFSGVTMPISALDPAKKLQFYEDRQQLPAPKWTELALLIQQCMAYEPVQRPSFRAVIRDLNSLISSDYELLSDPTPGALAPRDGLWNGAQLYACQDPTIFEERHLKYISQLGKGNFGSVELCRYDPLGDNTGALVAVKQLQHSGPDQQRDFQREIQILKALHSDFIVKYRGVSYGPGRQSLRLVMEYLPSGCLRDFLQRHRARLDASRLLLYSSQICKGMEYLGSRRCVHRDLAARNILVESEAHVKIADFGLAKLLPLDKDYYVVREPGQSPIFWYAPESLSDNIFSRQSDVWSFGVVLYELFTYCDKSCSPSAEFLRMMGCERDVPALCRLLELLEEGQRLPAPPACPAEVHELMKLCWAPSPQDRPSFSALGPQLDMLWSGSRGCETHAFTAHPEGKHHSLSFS
Assay: Assay 1: LanthaScreen biochemical JAK kinase assay, JAK3
Conditions: converted from pIC50 by Cheng-Prusoff; ATP at Km 1.6 μM; read-out: JAK 3 pKi (converted)
Protocol: A panel of four LanthaScreen JAK biochemical assays (JAK1, 2, 3 and Tyk2) were carried in a common kinase reaction buffer (50 mM HEPES, pH 7.5, 0.01% Brij-35, 10 mM MgCl2, and 1 mM EGTA). Recombinant GST-tagged JAK enzymes and a GFP-tagged STAT1 peptide substrate were obtained from Life Technologies.
ATP was subsequently added to initiate the kinase reactions in 10 μL total volume, with 1% DMSO. […] Kinase reactions were allowed to proceed for 1 hour at ambient temperature before a 10 μL preparation of EDTA (10 mM final concentration) and Tb-anti-pSTAT1 (pTyr701) antibody (Life Technologies, 2 nM final concentration) in TR-FRET dilution buffer (Life Technologies) was added. […] Emission ratio signals (520 nm/495 nm) were recorded and utilized to calculate the percent inhibition values based on DMSO and background controls.
For dose-response analysis, percent inhibition data were plotted vs. compound concentrations, and IC50 values were determined from a 4-parameter robust fit model with the Prism software (GraphPad Software).

## CCc1cc(O)c(F)cc1-c1ccc2c(-c3nc4c([nH]3)CCN(C3CCN(C)CC3)C4)n[nH]c2c1 [Compound 1, 5-ethyl-2-fluoro-4-(3-(5-(1-methylpiperidin-4-yl)-4,5,6,7-tetrahydro-1H-imidazo[4,5-c]pyridin-2-yl)-1H-indazol-6-yl)phenol]
  Ki: 0.2 nM
